{
  "source": "ChEMBL document CHEMBL5550186",
  "about": "“Exploring the Potential of Cyclic Peptidyl Antitumor Agents Derived from Natural Macrocyclic Peptide Phakellistatin 13” (J Med Chem, 2024)",
  "key": {"[1]": {"test": "Upregulation of IL1A expression level in human HepG2 cells assessed as fold change by KEGG enrichment analysis", "type": "functional"}, "HepG2 [2]": {"tested_on": "HepG2", "test": "Induction of cell cycle arrest in human HepG2 cells assessed as accumulation of cells at <2N phase at 10 uM incubated for 12 hrs by PI staining based flow cytometry analysis (reference value: 0.027%)", "type": "functional"}, "[3]": {"test": "Downregulation of NOTCH3 expression level in human HepG2 cells assessed as fold change by KEGG enrichment analysis", "type": "functional"}, "Cell membrane [4]": {"tested_on": "Cell membrane", "test": "Induction of mitochondrial membrane potential loss in human HepG2 cells assessed as decrease in fluorescence at 20 uM measured after 48 hrs by Rhodamine 123 staining based flow cytometry (reference value: 66.8%)", "type": "cell membranes", "parameters": "scale not given: the % may be the effect or the level left"}, "HeLa": {"tested_on": "HeLa", "test": "Antiproliferative activity against human HeLa cells incubated for 48 hrs by MTT assay", "type": "functional, cell-based"}, "[5]": {"test": "Downregulation of RSPO3 expression level in human HepG2 cells assessed as fold change by KEGG enrichment analysis", "type": "functional"}, "[6]": {"test": "Effect on MAML3 expression level in human HepG2 cells assessed as fold change by KEGG enrichment analysis", "type": "functional"}, "HepG2 [7]": {"tested_on": "HepG2", "test": "Induction of apoptosis in human HepG2 cells assessed as viable cells at 20 uM incubated for 48 hrs by annexin V-FITC/PI staining based flow cytometry analysis (reference value: 99.3%)", "type": "functional", "details": "read-out: Activity"}, "[8]": {"test": "[…] of CCND1 expression level in human HepG2 cells assessed as fold change by KEGG enrichment analysis", "type": "functional"}, "in vitro": {"test": "in vitro", "details": "human, Caco-2", "description": "Apparent permeability of compound in human Caco-2 cells at 10 uM measured upto 120 mins by LC-MS/MS analysis"}, "HepG2 [9]": {"tested_on": "HepG2", "test": "Induction of cell cycle arrest in human HepG2 cells assessed as accumulation of cells at 2N phase at 10 uM incubated for 24 hrs by PI staining based flow cytometry analysis (reference value: 26.0%)", "type": "functional"}, "[10]": {"test": "Toxicity in Balb/c mouse assessed as effect on lung at 6 mg/kg, iv measured after 14 days by H and E staining based analysis", "type": "organism-based", "details": "in vivo, 336 h, time 14 day"}, "[11]": {"test": "Upregulation of CDKN1A expression level in human HepG2 cells assessed as fold change by KEGG enrichment analysis", "type": "functional"}, "HepG2 [12]": {"tested_on": "HepG2", "test": "Induction of apoptosis in human HepG2 cells assessed as early apoptotic cells at 5 uM incubated for 48 hrs by annexin V-FITC/PI staining based flow cytometry analysis (reference value: 0.50%)", "type": "functional"}, "[13]": {"test": "Apparent permeability of compound", "type": "ADME", "details": "not told"}, "[14]": {"test": "Upregulation of GADD45A expression level in human HepG2 cells assessed as fold change by KEGG enrichment analysis", "type": "functional"}, "HepG2 [15]": {"tested_on": "HepG2", "test": "Induction of apoptosis in human HepG2 cells assessed as increase in number of apoptotic cells at 5 to 10 uM measured after 24 hrs by annexin V-mCherry staining based fluorescence microscopic analysis", "type": "functional, cell-based", "details": "dose 5-10 µM"}, "Cell membrane [16]": {"tested_on": "Cell membrane", "test": "Induction of mitochondrial membrane potential loss in human HepG2 cells assessed as decrease in fluorescence at 10 uM measured after 12 hrs by Rhodamine 123 staining based flow cytometry (reference value: 66.8%)", "type": "cell membranes", "parameters": "scale not given: the % may be the effect or the level left"}, "HepG2 [17]": {"tested_on": "HepG2", "test": "Induction of apoptosis in human HepG2 cells assessed as viable cells at 10 uM incubated for 48 hrs by annexin V-FITC/PI staining based flow cytometry analysis (reference value: 99.3%)", "type": "functional", "details": "read-out: Activity"}, "[18]": {"test": "Antiproliferative activity against mouse L929 cells incubated for 48 hrs by MTT assay", "type": "toxicity, cell-based"}, "HepG2 [19]": {"tested_on": "HepG2", "test": "Induction of apoptosis in human HepG2 cells assessed as early apoptotic cells at 20 uM incubated for 48 hrs by annexin V-FITC/PI staining based flow cytometry analysis (reference value: 0.50%)", "type": "functional"}, "4T1": {"tested_on": "4T1", "test": "Antiproliferative activity against mouse 4T1 cells incubated for 48 hrs by MTT assay", "type": "functional, cell-based", "details": "4T1, 48 h"}, "[20]": {"test": "Toxicity in Balb/c mouse assessed as effect on spleen at 6 mg/kg, iv measured after 14 days by H and E staining based analysis", "type": "organism-based", "details": "in vivo, 336 h, time 14 day"}, "HepG2 [21]": {"tested_on": "HepG2", "test": "Induction of morphological changes in human HepG2 cells assessed as deterioration of cell membrane integrity at 40 uM measured after 12 to 24 hrs by fluorescence inverted microscopic analysis", "type": "functional, cell-based", "details": "time 12-24 hrs"}},
  "note": "Calls of active or inactive are those of the source. The calls are words filed in the database; no cut-off is given here.",
  "data": [
    {"smiles": "CC(C)C[C@H]1NC(=O)[C@H]([C@@H](C)OCc2ccccc2)NC(=O)[C@H]2CCCN2C(=O)CN2C(=O)c3ccccc3[C@@]2(O)CN(Cc2ccccc2)C(=O)[C@H](Cc2ccccc2)NC(=O)[C@H]2CCCN2C(=O)[C@H](Cc2c[nH]c3ccccc23)NC1=O", "values": [
      {"measurement": "fold change (FC)", "setting": "[1]", "result": 2.186},
      {"measurement": "Activity", "setting": "HepG2 [2]", "result": 36.2, "unit": "%"},
      {"measurement": "fold change (FC)", "setting": "[3]", "result": -1.52},
      {"measurement": "Activity", "setting": "Cell membrane [4]", "result": 18.4, "unit": "%"},
      {"measurement": "IC50", "setting": "HeLa", "result": 16.9, "unit": "µM"},
      {"measurement": "fold change (FC)", "setting": "[5]", "result": -1.578},
      {"measurement": "fold change (FC)", "setting": "[6]", "result": -1.198},
      {"measurement": "viability at 20 µM", "setting": "HepG2 [7]", "result": 52, "unit": "%"},
      {"measurement": "fold change (FC)", "setting": "[8]", "result": -1.18},
      {"measurement": "Papp at 2 h, 10 µM", "setting": "in vitro", "result": "> 20", "unit": "×10⁻⁶ cm/s"},
      {"measurement": "Activity", "setting": "HepG2 [9]", "result": 23.3, "unit": "%"},
      {"measurement": "Activity", "setting": "[10]", "result": "Non-Toxic"},
      {"measurement": "fold change (FC)", "setting": "[11]", "result": 1.175},
      {"measurement": "Activity", "setting": "HepG2 [12]", "result": 16.8, "unit": "%"},
      {"measurement": "Papp", "setting": "[13]", "result": 0.416, "unit": "×10⁻⁶ cm/s"},
      {"measurement": "fold change (FC)", "setting": "[14]", "result": 1.519},
      {"measurement": "Activity", "setting": "HepG2 [15]", "result": "Active"},
      {"measurement": "Activity", "setting": "Cell membrane [16]", "result": 55.6, "unit": "%"},
      {"measurement": "viability at 10 µM", "setting": "HepG2 [17]", "result": 68.1, "unit": "%"},
      {"measurement": "IC50 at 48 h", "setting": "[18]", "result": "> 100", "unit": "µM"},
      {"measurement": "Activity", "setting": "HepG2 [19]", "result": 41.1, "unit": "%"},
      {"measurement": "IC50", "setting": "4T1", "result": 38.5, "unit": "µM"},
      {"measurement": "Activity", "setting": "[20]", "result": "Non-Toxic"},
      {"measurement": "Activity", "setting": "HepG2 [21]", "result": "Active"}
    ]}
  ]
}
